According to patent publication US20250302968A1, “RADIATION CLEAVED DRUG-CONJUGATE LINKERS ENABLE LOCAL PAYLOAD RELEASE SCLEROSIS” (The General Hospital Corporation, priority 2022, published 2025):
Read-outs that look alike come from different tables or passages of the source. Where a SMILES comes first, the peptide text is derived from it. [ ]: non-standard residue; d: D form. The star is where a group is joined. Dolaproine = CO[C@@H]([C@@H]1CCCN1)[C@@H](C)C(=O)O; Dil = CC[C@H](C)[C@H](NC)[C@@H](CC(=O)O)OC; X1 = C[C@@H](N*)[C@@H](O)c1ccccc1; NMeV = CN[C@H](C(=O)O)C(C)C

Key:
[1] = Stability of prodrugs in PBS at 37° C., LC-MS; type: physicochemical; conditions: buffer
Description: Prodrugs were prepared to concentrations of 10 μM in PBS (pH 7.4, <2% DMF) and incubated at 37° C. to determine the relative stability under physiological conditions (FIG. 14). Aliquots of these solutions were removed after varying time intervals and analyzed via LC-MS on a Waters 3100 Mass Detector with an Xterra MS C18 Column to measure the amount of each prodrug remaining in solution. All measurements were made in triplicate and analyzed in Graphpad Prism to determine the half-lives (991, 257, and 2252 hours were determined for compounds 8, 9, and 10 respectively).

[2] = test system: Bone marrow-derived macrophages (BMDM) from IL12-eYFP reporter mice; test: Cellular immunostimulation of BMDM (p-NFkB and IL12-eYFP fluorescence); type: cell-based; conditions: 100 nM, 48 hours
Description: Bone marrow-derived macrophages (BMDM) were generated from IL12-eYFP reporter mice by dissecting the femurs, flushing out the bone marrow, and culturing isolate with M-CSF supplemented growth media (Luthria G, et al. Nat Commun. 2020; 11:3521]. BMDM were plated in a 96 well plate at a concentration of 5,000 cells per well. These wells were then treated with either free gardiquimod, pATFB-SIL-Mal-Gard (13), or prodrug 13 that had been treated with 10 μM tris(2-carboxyethyl) phosphine) to chemically release the free gardiquimod (all drugs at a concentration of 100 nM). The cells were then incubated for 48 hours then fixed with 4% PFA and stained with Phospho-NF-κB p65 (Ser536) (93H1) Rabbit mAb and AF647 Goat anti-Rabbit IgG. Images were captured on a modified BX63 (Olympus) inverted microscopy system equipped with an environmental chamber and robotic stage, using excitation/emission wavelengths of 513/527 and 640/670 for eYFP and Cy5, respectively. The images were then quantified using ImageJ software (NIH, USA) to determine relative protein expression.

[3] = test system: 8505c (human anaplastic thyroid cancer); test: Cytotoxicity assay, 72 hour incubation, PrestoBlue (resazurin-based); type: cell-based; conditions: for IC50: Homo sapiens
Description: Experiments with cancer cells were performed to assess the degree to which the disclosed linker strategy shields biological activity of the drug payload under un-irradiated conditions, and restore drug activity once irradiated.
All cells were routinely evaluated for mycoplasma contamination and cultured following provider guidelines using 10% FBS (Bio-Techne Sales), 100 IU mL-1 penicillin, 100 μg mL-1 streptomycin (Invitrogen), with incubation at 37° C. and 5% CO2. Cytotoxicity experiments were performed by seeding 5,000 cells per well overnight in a 96-well plate (Corning) before the addition of each drug/conjugate. Empty wells with only media or vehicle-treated cells were used as controls. After addition of the corresponding drugs and a 72 hour incubation, the number of live cells was determined by PrestoBlue (ThermoFisher, USA) staining according to the provider's protocols.

[4] = Drug payload stability after X-ray irradiation, LC/MS chromatograph analysis; type: physicochemical; conditions: 8 Gy X-ray irradiation, 100 uM in PBS, degassed
Description: FIG. 5. Illustrates drug payload stability after X-ray irradiation. […] Both drug solutions were prepared to a concentration of 100 uM in PBS and analyzed before and after irradiation. MMAE chromatographs were obtained via ELSD and DOX chromatographs were obtained via UV absorbance scan (200-800 nm).
No difference in cleavage efficiency was found between gamma irradiation from a sealed 137Cs source (primarily 662 keV photons at a dose rate of roughly 0.5 Gy/min), and X-ray irradiation (from a 4000 W tube generating 320 keV photons at 3 Gy/min), and little background release was observed under un-irradiated conditions (FIG. 4).

8505c cell line = test: Subcellular localization of DOX by intrinsic fluorescence imaging; type: cell-based, human; conditions: ATC cells (8505c)
Description: Subcellular localization of DOX in the 8505c cell line was measured using a modified BX63 (Olympus) inverted microscopy system equipped with an environmental chamber and robotic stage. DOX images were collected using a 40× air objective (PLAPO 40×/0.95 numerical aperture), with excitation and emission wavelengths of 489 nm and 508 nm, respectively. All images were processed using cellSens Dimension 3.1.1 (Olympus, USA) and ImageJ 1.53k (NIH, USA) software. Nuclear to cytoplasm fluorescence ratios were calculated and plotted using Excel (Microsoft) and Prism (GraphPad). 20 μM concentration of free (or released) DOX was used, and unirradiated prodrug used the same total (caged and uncaged) DOX concentration as used in the irradiated sample. Following treatment for 72 hours, live cells were immediately imaged by confocal microscopy.

[5] = 10 μM in PBS (pH 7.4, <2% DMF), 37° C., read-out: half-life (converted)

Compound: CC[C@@H](C)[C@H]([C@H](CC(=O)N1CCC[C@@H]1[C@@H](OC)C(C)C(=O)N[C@@H](C)[C@H](O)c1ccccc1)OC)N(C)C(=O)[C@H](CC(=O)[C@H](C(C)C)N(C)C(=O)OC(C(=O)OC)c1ccc(NC(=O)OCc2c(F)c(F)c(N=[N+]=[N-])c(F)c2F)cc1)C(C)C (some centres unmarked) [Compound 8]
- half-life at 10 μM [1, 5]: 41.3 days

Compound: COC(=O)C(OC(=O)N[C@H]1C[C@H](O[C@H]2C[C@](O)(C(=O)CO)Cc3c(O)c4c(c(O)c32)C(=O)c2c(OC)cccc2C4=O)O[C@@H](C)[C@H]1O)c1ccc(NC(=O)OCc2c(F)c(F)c(N=[N+]=[N-])c(F)c2F)cc1 (some centres unmarked) [Compound 9]
- half-life at 10 μM [1, 5]: 10.7 days

Compound: CCN(Cc1nc2c(N)nc3ccccc3c2n1CC(C)(C)O)C(=O)OC(C(=O)OC)c1ccc(NC(=O)OCc2c(F)c(F)c(N=[N+]=[N-])c(F)c2F)cc1 (centres unmarked) [Compound 10]
- half-life at 10 μM ([1]; pH 7.4): 93.8 days
- immunostimulatory behavior compared to free gardiquimod, caged [2]: attenuated immunostimulatory behavior
- immunostimulatory activity after chemical uncaging ([2]; prodrug treated with 10 μM TCEP): restores the immunostimulatory activity

Compound: COC(=O)C(OC(=O)N[C@@H]1C[C@@H](O[C@H]2C[C@](O)(C(=O)CO)Cc3c(O)c4c(c(O)c32)C(=O)c2c(OC)cccc2C4=O)O[C@H](C)[C@H]1O)c1ccc(NC(=O)OCc2cc(OC)cc(OC)c2)cc1 (some centres unmarked) [DMBA-SIL-DOX]
- IC50 ([3]; 8505C, light or radiation study, read-out: concentration at which drug inhibited 50% of ATC cell growth): > 10000 nM
- fold higher IC50 than that observed for the parent drug ([3]; un-irradiated, 8505c ATC cells): roughly 100 fold

Compound: CC[C@H](C)[C@@H]([C@@H](CC(=O)N1CCC[C@H]1[C@H](OC)[C@@H](C)C(=O)N[C@H](C)[C@@H](O)c1ccccc1)OC)N(C)C(=O)[C@@H](NC(=O)[C@@H](NC)C(C)C)C(C)C [MMAE, monomethyl auristatin E] (H-[NMeV]V[Dil][Dolaproine]-X1)
- effect of irradiation on the drug payload itself [4]: Neither MMAE nor doxorubicin themselves were substantially affected

Compound: COc1cccc2c1C(=O)c1c(O)c3c(c(O)c1C2=O)C[C@@](O)(C(=O)CO)C[C@@H]3O[C@H]1C[C@H](N)[C@H](O)[C@H](C)O1 [doxorubicin]
- IC50 ([3]; 8505c ATC cells, read-out: IC50 of parent drug): 94 nM
- subcellular distribution of DOX fluorescence, free drug (8505c cell line): nuclear accumulation
- effect of irradiation on the drug payload itself [4]: Neither MMAE nor doxorubicin themselves were substantially affected
